Results: patent publication US20100113363A1, “Use of GLP-1 Peptides” (Novo Nordisk A/S, priority 1996, published 2010)
Like-named read-outs stand apart in the source and are kept apart here. No end group written: not given here.

How the values were obtained:
[1] = rats, Tang-Christensen et al., cited from earlier work
[2] = rats, Turton et al., cited from earlier work
[3] = Appetite suppression in mice: sucrose consumption, tested immediately after intraperitoneal injection; assay type: in vivo; details: 85 micrograms (3.4 mg/kg) intraperitoneally, 10 minute period, p-value 0.002
Method: Mice were deprived of their normal food for two days and given free access to a 20% sucrose solution on the first day of food deprivation. After the two day food deprivation period, the mice were injected intraperitoneally with 0.5ml of a solution containing the test substance. Immediately after injection, individual mice were placed in one of eight 15 cm square test boxes with a stainless steel grid floor and a glass drinking tube which projected into the box. […] Consumption of the sucrose solution was measured over a 10 minute period by electronically recording the total amount of contact with the sucrose solution during the test session. The degree of appetite suppression produced by a given test substance was determined by statistical comparison of the mean duration of sucrose consumption by control (vehicle treated) mice with that of mice treated with a test substance. The degree of appetite suppression in a treated group of mice was expressed as percent difference between the test and control group's response duration means. […]

[4] = iv infusion of GLP-1(7-36)amide in healthy human volunteers: visual analogue scale ratings and ad libitum lunch energy intake; assay type: in vivo; details: iv infusion 50 pmol/(kg·h)
Excerpt: Healthy human volunteers (20 subjects) were in a double-blind crossover trial given an iv infusion of 50 pmol/(kg·h) of GLP-1(7-36)amide or saline on separate, but otherwise identical experimental days. The infusion was started at 9.00 and lasted until 15.00. At 9.45 the subjects received a fixed amount of breakfast and at 14.15 they had lunch of an identical composition but ad libitum. The subjects rated their feeling of satiety, hunger, fullness and appetite on a visual analogue scale every half hour. The results are given below:
The energy intake of each subjects was measured. The intakes were 3.9 MJ with GLP-1 and 4.3 MJ with Saline resulting in a p-value of 0.009.

[5] = Suppression of appetite in mice by subcutaneously injected synthetic GLP-1(7-36)amide: Complan consumption; assay type: in vivo; details: p<0.001
Method: The test method was as described in Example 3 except that the mice were pre-exposed to formula milk (Complan®—a nutritionally complete infant milk substitute) for one day, then fasted […]. On the test day, consumption of Complan® was measured for each mouse during a 10 min period.
Mice were tested for appetite suppression by subcutaneous injection of GLP-1(7-36)amide dissolved in phosphate buffered saline.

[6] = administered intracerebroventricularly

GLP-1(1-36)amide (HDEFERHAEGTFTSDVSSYLEGQAAKEFIAWLVKGR-NH2; UniProt P01275 92-127, looked up, fragment) [fragment 1-36 of GLP-1, C-terminal amide]
effect on food intake ([1]; route not stated): no effect

GLP-1(7-36)amide
effect on food intake [2, 6]: profound effect | effect on food intake ([2]; peripheral administration): inactive | suppression of sucrose consumption [3]: 60% | energy intake ([4]; ad libitum lunch, saline 4.3 MJ, p-value 0.009): 3.9 mJ | Satiety (visual analogue scale) ([4]; versus saline, p = 0.006): GLP-1 > Saline, p = 0.006 | Appetite (visual analogue scale) ([4]; versus saline, p = 0.007): GLP-1 < Saline, p = 0.007 | Hunger (visual analogue scale) ([4]; versus saline, p = 0.007): GLP-1 < Saline, p = 0.007 | Fullness (visual analogue scale) ([4]; versus saline, p = 0.010): GLP-1 > Saline, p = 0.010 | suppression of feeding ([5]; 1 mg/kg subcutaneous, 30 min after injection): 45% | maximum effect, suppression of feeding ([5]; 20 mg/kg subcutaneous (highest dose tested)): 60% | effect on food intake [1, 6]: profound effect | effect on food intake ([1]; peripherally administered): no significant effect
